From PubChem BioAssay (NCI)
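Interpolation was linear, between the two tested concentrations surrounding the appropriate level; five concentrations were tested over 48 hours in 96-well plates. TGI: concentration producing complete growth inhibition.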

What was measured:
Test in all cases: NCI-60 cell line screen, 48 h
[1] = test system: 786-0 renal
[2] = test system: A498 renal
[3] = test system: A549 NSCLC
[4] = test system: ACHN renal
[5] = test system: CAKI-1 renal
[6] = test system: CCRF-CEM leukemia
[7] = test system: DMS 114 small cell lung
[8] = test system: DMS 273 small cell lung
[9] = test system: EKVX NSCLC
[10] = test system: HCC-2998 colon
[11] = test system: HCT-116 colon
[12] = test system: HCT-15 colon
[13] = test system: HL-60(TB) leukemia
[14] = test system: HOP-62 NSCLC
[15] = test system: HT29 colon
[16] = test system: IGROV1 ovarian
[17] = test system: K-562 leukemia
[18] = test system: KM12 colon
[19] = test system: KM20L2 colon
[20] = test system: LOX IMVI melanoma
[21] = test system: M14 melanoma
[22] = test system: M19-MEL melanoma
[23] = test system: MALME-3M melanoma
[24] = test system: MOLT-4 leukemia
[25] = test system: NCI-H226 lung
[26] = test system: NCI-H23 lung
[27] = test system: NCI-H460 lung
[28] = test system: NCI-H522 lung
[29] = test system: OVCAR-3 ovarian
[30] = test system: OVCAR-4 ovarian
[31] = test system: OVCAR-5 ovarian
[32] = test system: OVCAR-8 ovarian
[33] = test system: RPMI-8226 leukemia
[34] = test system: RXF 393 renal
[35] = test system: SF-268 CNS
[36] = test system: SF-295 CNS
[37] = test system: SF-539 CNS
[38] = test system: SK-MEL-2 melanoma
[39] = test system: SK-MEL-28 melanoma
[40] = test system: SK-MEL-5 melanoma
[41] = test system: SK-OV-3 ovarian
[42] = test system: SN12C renal
[43] = test system: SNB-19 CNS
[44] = test system: SNB-75 CNS
[45] = test system: SNB-78 CNS
[46] = test system: SR leukemia
[47] = test system: SW-620 colon
[48] = test system: TK-10 renal
[49] = test system: U251 CNS
[50] = test system: UACC-257 melanoma
[51] = test system: UACC-62 melanoma
[52] = test system: UO-31 renal
[53] = test system: COLO 205 colon
[54] = test system: DLD-1 colon
[55] = test system: HOP-18 NSCLC
[56] = test system: HOP-92 NSCLC
[57] = test system: LXFL 529 NSCLC

## CSc1nc(=Nc2ccccc2)sn1-c1ccccc1
[1]
  TGI: 34.4 µM
[2]
  TGI: 38.7 µM
[3]
  TGI: 44 µM
[4]
  TGI: 56 µM
[5]
  TGI: 35.1 µM
[6]
  TGI: 40 µM
[7]
  TGI: 16.1 µM
[8]
  TGI: 22.8 µM
[9]
  TGI: > 100 µM
[10]
  TGI: 38.1 µM
[11]
  TGI: 32.5 µM
[12]
  TGI: 30.4 µM
[13]
  TGI: 22.6 µM
[14]
  TGI: 31.3 µM
[15]
  TGI: 11.8 µM
[16]
  TGI: 40 µM
[17]
  TGI: 30.1 µM
[18]
  TGI: 44.2 µM
[19]
  TGI: 28.4 µM
[20]
  TGI: 32 µM
[21]
  TGI: 22.5 µM
[22]
  TGI: 23 µM
[23]
  TGI: 99.1 µM
[24]
  TGI: 96 µM
[25]
  TGI: 36.2 µM
[26]
  TGI: 36 µM
[27]
  TGI: 16.9 µM
[28]
  TGI: 13.2 µM
[29]
  TGI: 38.5 µM
[30]
  TGI: 23.6 µM
[31]
  TGI: 48 µM
[32]
  TGI: 46.3 µM
[33]
  TGI: 40.5 µM
[34]
  TGI: 31.3 µM
[35]
  TGI: 54 µM
[36]
  TGI: 49.2 µM
[37]
  TGI: 36.9 µM
[38]
  TGI: 76.9 µM
[39]
  TGI: 30.2 µM
[40]
  TGI: 23.2 µM
[41]
  TGI: 62.2 µM
[42]
  TGI: 39 µM
[43]
  TGI: 56.7 µM
[44]
  TGI: 55.8 µM
[45]
  TGI: 47 µM
[46]
  TGI: 81.1 µM
[47]
  TGI: 26.1 µM
[48]
  TGI: 60.5 µM
[49]
  TGI: 33.4 µM
[50]
  TGI: 43.9 µM
[51]
  TGI: 18 µM
[52]
  TGI: 39.8 µM

## Cc1nc2ccccc2c(=O)n1NC(=S)Nc1ccccc1
[1]
  TGI: > 100 µM
[2]
  TGI: > 100 µM
[3]
  TGI: > 100 µM
[4]
  TGI: > 100 µM
[5]
  TGI: > 100 µM
[6]
  TGI: > 100 µM
[53]
  TGI: > 100 µM
[54]
  TGI: > 100 µM
[7]
  TGI: > 100 µM
[8]
  TGI: > 100 µM
[11]
  TGI: > 100 µM
[12]
  TGI: > 100 µM
[13]
  TGI: > 100 µM
[55]
  TGI: > 100 µM
[14]
  TGI: > 100 µM
[56]
  TGI: > 100 µM
[15]
  TGI: > 100 µM
[16]
  TGI: > 100 µM
[17]
  TGI: > 100 µM
[18]
  TGI: > 100 µM
[20]
  TGI: > 100 µM
[57]
  TGI: > 100 µM
[21]
  TGI: > 100 µM
[22]
  TGI: > 100 µM
[23]
  TGI: > 100 µM
[24]
  TGI: > 100 µM
[25]
  TGI: > 100 µM
[26]
  TGI: > 100 µM
[27]
  TGI: > 100 µM
[28]
  TGI: > 100 µM
[30]
  TGI: > 100 µM
[31]
  TGI: > 100 µM
[32]
  TGI: > 100 µM
[33]
  TGI: > 100 µM
[34]
  TGI: > 100 µM
[35]
  TGI: > 100 µM
[36]
  TGI: > 100 µM
[37]
  TGI: > 100 µM
[38]
  TGI: > 100 µM
[39]
  TGI: > 100 µM
[40]
  TGI: > 100 µM
[41]
  TGI: > 100 µM
[42]
  TGI: > 100 µM
[44]
  TGI: > 100 µM
[46]
  TGI: > 100 µM
[47]
  TGI: > 100 µM
[48]
  TGI: > 100 µM
[49]
  TGI: > 100 µM
[50]
  TGI: > 100 µM
[51]
  TGI: > 100 µM
[52]
  TGI: > 100 µM
